Here are results for four compounds from PMC6071317 (European journal of medicinal chemistry, 2017).

The test system of data set [1] is GABAAR. The note with it: read-out: Potentiation EC50; bulk phase concentration; cited from earlier work.
For data set [2], the target named is purified α1β3γ2 GABAARs (Homo sapiens, UniProt P14867+P28472). The data set is classed as binding. The settings on record: 3.5 μM [3H]azietomidate.
Data set [3] deals with purified human α1β3γ2 GABAA receptor (Homo sapiens, UniProt P14867+P28472). Type of data set: binding.
The target of data set [4] is human α1β3γ2 GABAA receptors (Homo sapiens, UniProt P14867+P28472). Description: Modulation of [3H]muscimol binding to GABAA receptor membranes from HEK293 cells. The note with it: 2 nM [3H]muscimol.
The nature of data set [5]: Partition coefficient. The data set is classed as physicochemical. The note with it: difference to alphaxalone.

human α1β3γ2 GABAA receptors, sequence (P14867 28-456): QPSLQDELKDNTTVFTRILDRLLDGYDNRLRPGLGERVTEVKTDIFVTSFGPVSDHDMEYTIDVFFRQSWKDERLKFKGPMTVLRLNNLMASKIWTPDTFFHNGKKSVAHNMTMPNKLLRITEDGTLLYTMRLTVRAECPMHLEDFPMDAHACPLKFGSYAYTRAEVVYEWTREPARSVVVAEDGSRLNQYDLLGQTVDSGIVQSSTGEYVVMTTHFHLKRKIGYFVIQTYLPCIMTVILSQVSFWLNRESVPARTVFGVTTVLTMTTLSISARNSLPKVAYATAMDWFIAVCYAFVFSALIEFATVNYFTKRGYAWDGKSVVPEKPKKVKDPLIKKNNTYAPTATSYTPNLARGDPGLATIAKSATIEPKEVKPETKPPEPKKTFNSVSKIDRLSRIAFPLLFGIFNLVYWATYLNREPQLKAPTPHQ
human α1β3γ2 GABAA receptors, sequence (P28472 26-473): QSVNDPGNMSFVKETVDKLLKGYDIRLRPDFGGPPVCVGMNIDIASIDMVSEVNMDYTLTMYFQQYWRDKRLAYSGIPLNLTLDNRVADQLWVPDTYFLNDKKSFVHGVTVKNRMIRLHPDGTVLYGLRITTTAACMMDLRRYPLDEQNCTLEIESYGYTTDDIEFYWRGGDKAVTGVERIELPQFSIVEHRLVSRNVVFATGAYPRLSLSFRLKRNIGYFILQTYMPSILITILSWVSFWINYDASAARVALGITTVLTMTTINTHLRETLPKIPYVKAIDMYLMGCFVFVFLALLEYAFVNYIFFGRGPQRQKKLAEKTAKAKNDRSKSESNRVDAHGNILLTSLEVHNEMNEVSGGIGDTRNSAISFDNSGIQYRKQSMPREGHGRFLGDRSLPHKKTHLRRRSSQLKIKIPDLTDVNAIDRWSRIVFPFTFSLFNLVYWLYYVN
human α1β3γ2 GABAA receptors, sequence (P18507 40-475 partner): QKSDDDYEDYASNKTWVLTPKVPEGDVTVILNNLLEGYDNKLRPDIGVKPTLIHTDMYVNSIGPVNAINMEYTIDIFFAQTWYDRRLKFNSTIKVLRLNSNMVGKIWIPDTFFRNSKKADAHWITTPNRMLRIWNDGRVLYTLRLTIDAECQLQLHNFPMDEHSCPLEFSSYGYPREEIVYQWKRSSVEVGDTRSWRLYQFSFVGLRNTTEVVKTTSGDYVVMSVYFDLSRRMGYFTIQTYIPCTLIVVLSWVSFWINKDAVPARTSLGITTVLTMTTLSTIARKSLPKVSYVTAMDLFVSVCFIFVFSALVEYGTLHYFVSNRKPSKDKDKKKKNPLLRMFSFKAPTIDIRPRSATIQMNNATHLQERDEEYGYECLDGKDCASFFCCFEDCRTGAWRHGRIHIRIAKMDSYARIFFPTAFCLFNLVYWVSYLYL
purified human α1β3γ2 GABAA receptor, sequence (P14867 28-456): as the sequence (P14867 28-456) above
purified human α1β3γ2 GABAA receptor, sequence (P28472 26-473): as the sequence (P28472 26-473) above
purified human α1β3γ2 GABAA receptor, sequence (P18507 40-475 partner): as the sequence (P18507 40-475 partner) above
purified α1β3γ2 GABAARs, sequence (P14867 28-456): as the sequence (P14867 28-456) above
purified α1β3γ2 GABAARs, sequence (P28472 26-473): as the sequence (P28472 26-473) above
purified α1β3γ2 GABAARs, sequence (P18507 40-475 partner): as the sequence (P18507 40-475 partner) above

With `CC(=O)[C@H]1CC[C@H]2[C@@H]3CC[C@H]4C[C@H](O)CC[C@]4(C)[C@H]3C(=O)C[C@]12C` [alphaxalone, Alphaxalone], the EC50 in data set [1] was 600 nM.
Consider `CC(c1ccccc1)n1cncc1C(=O)OCCC1(C)N=N1` (stereo not drawn) [[^3H]azietomidate, reference compound], for which the α-subunits photolabeled in data set [2] is reported as 10%. Also, the “Pharmacologically specific subunit photolabeling (inhibitable by etomidate)” value in data set [3] ([3H]azietomidate subunit photolabeling) turned out to be 80%.
Turning to `CC(=O)[C@H]1CC[C@H]2[C@@H]3CC[C@H]4C[C@H](O)CC[C@]4(C)[C@H]3C3(C[C@]12C)N=N3` [11-aziAP, 11-Aziallopregnanolone], the “Enhancement of photolabeling by both probes ([3H]azietomidate, [3H]R-mTFD-MPAB)” value in data set [3] (0.3 and 1 μM) was “to the same extent as GABA or alphaxalone”. Also, in data set [4], the “Efficacy of modulation of [3H]muscimol binding” value turned out to be 227 ± 2% and the “Hill coefficient of enhancement of [3H]muscimol binding” value worked out at 1.1 ± 0.2.
For `CC(=O)[C@H]1CC[C@H]2[C@@H]3CC[C@H]4C[C@H](O)CC[C@]4(C)[C@H]3[C@@H](OC(=O)c3c(F)c(F)c(N=[N+]=[N-])c(F)c3F)C[C@]12C` [F4N3Bzox-AP, 11β-(4-Azido-2,3,5,6-tetrafluorobenzoyloxy)-3α-hydroxy-5α-pregnane-20-one], the “Higher lipophilicity as compared to alphaxalone” value in data set [5] is on record as “ca. 1.5 log P units”. In data set [4], the “Efficacy of modulation of [3H]muscimol binding” value amounted to 228 ± 4% and the “Hill coefficient of enhancement of [3H]muscimol binding” value is on record as 1.9 ± 0.1.

Broadly, the EC50 is the midpoint of the concentration-response curve.
